The results in this text go back to paper PMC9136306 (The Journal of General Physiology, 2022).

Each structure is given as a SMILES string. Several values for one entry are separate records, joined by “and”; a condition that tells them apart may be missing. Equal entries are not always repeated.

Test [1] concerns the target human α7-AChR (Homo sapiens, UniProt P36544). Briefly: cell-based. Type of test: binding. Particulars: for IC50: Unlabeled-ligand half-competition concentration.
The target in test [2] is Chicken–C. elegans α7-AChR–β-GluCl ECD–TMD chimera (UniProt P22770+Q17328). Briefly: cell-based. The test is classed as binding.
Test [3] deals with T1, Human–C. elegans α7-AChR–β-GluCl chimera S56T + S172T (Homo sapiens, UniProt P36544, S172T/S56T).
Test [4] addresses T1, Human–C. elegans α7-AChR–β-GluCl chimera S56T + S172T. Briefly: biochemical. Particulars: Unlabeled-ligand half-competition concentration.
Test [5] deals with Human–C. elegans α7-AChR–β-GluCl ECD–TMD chimera (UniProt P36544+Q17328). Briefly: cell-based. Type of test: binding.

Usually IC50 stands for the concentration that inhibits the measured activity by half.

Chain of Chicken–C. elegans α7-AChR–β-GluCl ECD–TMD chimera (P22770 whole entry, looked up, stated change not applied, the tested form may be a part): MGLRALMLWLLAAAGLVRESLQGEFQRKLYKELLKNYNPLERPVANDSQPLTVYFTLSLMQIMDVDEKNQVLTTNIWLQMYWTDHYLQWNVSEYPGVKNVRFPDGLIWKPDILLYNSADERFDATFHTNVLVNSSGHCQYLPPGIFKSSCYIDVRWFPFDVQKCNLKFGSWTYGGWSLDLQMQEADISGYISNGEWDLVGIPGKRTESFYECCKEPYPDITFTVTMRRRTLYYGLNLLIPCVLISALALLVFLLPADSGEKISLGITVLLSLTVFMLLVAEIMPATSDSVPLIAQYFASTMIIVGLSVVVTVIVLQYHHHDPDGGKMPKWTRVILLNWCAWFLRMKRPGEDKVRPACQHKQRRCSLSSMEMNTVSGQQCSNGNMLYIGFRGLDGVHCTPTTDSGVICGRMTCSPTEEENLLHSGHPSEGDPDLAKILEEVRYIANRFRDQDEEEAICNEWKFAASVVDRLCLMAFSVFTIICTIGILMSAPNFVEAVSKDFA
Chain of Chicken–C. elegans α7-AChR–β-GluCl ECD–TMD chimera (Q17328 whole entry, looked up, stated change not applied, the tested form may be a part): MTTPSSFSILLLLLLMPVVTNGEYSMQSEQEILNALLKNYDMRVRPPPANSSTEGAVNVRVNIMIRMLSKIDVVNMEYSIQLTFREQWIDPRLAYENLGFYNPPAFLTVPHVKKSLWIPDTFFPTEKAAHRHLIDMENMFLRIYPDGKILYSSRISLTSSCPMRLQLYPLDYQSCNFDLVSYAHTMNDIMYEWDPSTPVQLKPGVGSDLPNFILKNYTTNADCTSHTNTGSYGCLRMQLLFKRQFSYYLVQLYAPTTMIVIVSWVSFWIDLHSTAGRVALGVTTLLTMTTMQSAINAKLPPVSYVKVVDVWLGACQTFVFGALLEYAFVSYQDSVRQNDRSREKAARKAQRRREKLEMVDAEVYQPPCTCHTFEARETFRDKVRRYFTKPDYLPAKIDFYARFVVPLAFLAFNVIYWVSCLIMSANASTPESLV
T1 sequence (Q17328 245-434): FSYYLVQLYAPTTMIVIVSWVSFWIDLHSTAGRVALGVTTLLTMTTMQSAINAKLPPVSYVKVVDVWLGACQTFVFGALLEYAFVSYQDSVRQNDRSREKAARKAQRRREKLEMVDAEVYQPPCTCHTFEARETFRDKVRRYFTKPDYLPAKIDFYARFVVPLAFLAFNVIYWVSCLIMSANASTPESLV
T1 sequence (P36544 23-230 S56T/S172T): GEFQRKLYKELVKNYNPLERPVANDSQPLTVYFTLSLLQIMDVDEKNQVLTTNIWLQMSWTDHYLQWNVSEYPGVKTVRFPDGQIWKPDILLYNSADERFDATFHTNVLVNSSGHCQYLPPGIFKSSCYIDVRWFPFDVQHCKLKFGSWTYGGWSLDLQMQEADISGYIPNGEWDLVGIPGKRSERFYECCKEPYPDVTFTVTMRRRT
Chain of human α7-AChR (P36544 23-502): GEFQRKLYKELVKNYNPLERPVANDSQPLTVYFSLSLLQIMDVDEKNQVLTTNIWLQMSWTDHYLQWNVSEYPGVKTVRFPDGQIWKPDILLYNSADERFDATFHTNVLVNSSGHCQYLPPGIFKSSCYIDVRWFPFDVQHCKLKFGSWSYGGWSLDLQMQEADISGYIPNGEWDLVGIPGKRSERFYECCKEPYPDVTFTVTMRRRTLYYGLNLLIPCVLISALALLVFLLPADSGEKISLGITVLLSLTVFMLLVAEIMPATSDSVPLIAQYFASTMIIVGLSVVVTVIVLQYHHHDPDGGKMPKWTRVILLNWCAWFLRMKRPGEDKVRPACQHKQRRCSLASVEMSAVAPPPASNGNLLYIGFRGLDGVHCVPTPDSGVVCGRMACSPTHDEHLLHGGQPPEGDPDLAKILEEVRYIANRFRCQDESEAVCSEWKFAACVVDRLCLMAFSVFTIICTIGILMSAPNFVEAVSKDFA
Chain of Human–C. elegans α7-AChR–β-GluCl ECD–TMD chimera (P36544 whole entry, looked up, change not shown, the tested form may be a part): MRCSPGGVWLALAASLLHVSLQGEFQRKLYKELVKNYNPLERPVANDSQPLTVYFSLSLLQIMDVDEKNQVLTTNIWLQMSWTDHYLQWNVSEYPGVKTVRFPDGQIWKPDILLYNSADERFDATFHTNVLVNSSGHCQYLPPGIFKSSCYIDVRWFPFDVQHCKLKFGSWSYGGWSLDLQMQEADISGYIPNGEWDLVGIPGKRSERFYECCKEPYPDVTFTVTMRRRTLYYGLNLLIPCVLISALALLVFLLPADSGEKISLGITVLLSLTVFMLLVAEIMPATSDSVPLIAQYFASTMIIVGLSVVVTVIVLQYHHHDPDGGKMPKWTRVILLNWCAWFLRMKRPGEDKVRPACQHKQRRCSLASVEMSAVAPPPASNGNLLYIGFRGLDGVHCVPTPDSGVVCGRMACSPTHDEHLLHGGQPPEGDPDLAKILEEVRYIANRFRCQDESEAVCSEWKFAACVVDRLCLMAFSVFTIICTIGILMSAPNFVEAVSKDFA
Chain of Human–C. elegans α7-AChR–β-GluCl ECD–TMD chimera (Q17328 whole entry, looked up, change not shown, the tested form may be a part): as the sequence (Q17328 whole entry, looked up, stated change not applied, the tested form may be a part) above

Regarding `C[N+](C)(C)CCO` [Choline, choline], in test [1], the “Unlabeled-ligand nH (Hill coefficient, competition)” value (“Unlabeled-ligand nH” below) amounted to 1.28 ± 0.08 and the IC50 turned out to be 204000 ± 16000 nM.
`CCN1C[C@]2(COC(=O)c3ccccc3N3C(=O)C[C@H](C)C3=O)CC[C@H](OC)[C@@]34[C@@H]5C[C@H]6[C@H](OC)[C@@H]5[C@](O)(C[C@@H]6OC)[C@@](O)([C@@H](OC)[C@H]23)[C@@H]14` [MLA, methyllycaconitine]: the “Unlabeled-ligand nH” value in test [1] is 0.95 ± 0.05; in test [2] it was 0.990 ± 0.07; in test [3], 1.04 ± 0.08; in test [5], 1.01 ± 0.05. Further, the IC50 in test [1] is 88.9 ± 8.54 nM; in test [2], 4.9 ± 0.52 nM; in test [4], 32 nM and 32.5 nM; in test [5] (Unlabeled-ligand half-competition concentration) it was 68 nM and 68.3 nM. The “difference between closed-state affinities of the chicken and human α7-AChR ECDs” value in test [2] is recorded as approximately 14 fold.
With `CN1CCC[C@H]1c1cccnc1` [Nicotine, nicotine], in test [1], the “Hill coefficient, individual curve fitted separately” value is 1.50 ± 0.001 and 1.28 ± 0.001 and 1.42 ± 0.13; the “Unlabeled-ligand nH” value is recorded as 1.41 ± 0.06. Also, in test [2], the IC50 came to 3680 ± 110 nM and the “Unlabeled-ligand nH” value amounted to 1.80 ± 0.07. Further, in test [5], the “Unlabeled-ligand nH” value was found to be 1.08 ± 0.06.
